Experimental findings from patent US20240383904A1, “HETEROCYCLIC COMPOUNDS” (Hoffmann-La Roche Inc., priority 2021, published 2024) are described below.

This experiment concerns the target T1, MAGL (Homo sapiens, UniProt Q99685).
T1 sequence (Q99685 1-303): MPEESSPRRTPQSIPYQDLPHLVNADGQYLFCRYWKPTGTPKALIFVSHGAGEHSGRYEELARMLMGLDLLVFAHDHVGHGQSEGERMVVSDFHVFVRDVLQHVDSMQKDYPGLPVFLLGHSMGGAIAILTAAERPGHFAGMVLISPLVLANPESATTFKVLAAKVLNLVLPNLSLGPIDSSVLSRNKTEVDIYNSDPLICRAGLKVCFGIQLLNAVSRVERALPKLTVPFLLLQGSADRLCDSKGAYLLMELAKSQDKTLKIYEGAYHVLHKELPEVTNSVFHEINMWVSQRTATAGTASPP
Briefly: 2-AG assay: MAGL inhibitory activity by hydrolysis of 2-arachidonoylglycerol to arachidonic acid, followed by mass spectrometry. In kind it is biochemical. To be noted: 15 min preincubation, 30 min reaction at RT, 8 μM 2-arachidonoylglycerol.
`Cc1cc(C(F)(F)F)n(CC2CC3(C2)CN(C(=O)N2CC4(CCC(=O)N4)C2)C3)n1` [Example 328, 2-[6-[[3-methyl-5-(trifluoromethyl)pyrazol-1-yl]methyl]-2-azaspiro[3.3]heptane-2-carbonyl]-2,5-diazaspiro[3.4]octan-6-one] registered an IC50 of 15.9 nM.
Then `O=C1CCC2(CN(C(=O)N3CC4(CC(Cc5cc(C(F)(F)F)c[nH]c5=O)C4)C3)C2)N1` [Example 329, 2-[6-[[2-keto-5-(trifluoromethyl)-1H-pyridin-3-yl]methyl]-2-azaspiro[3.3]heptane-2-carbonyl]-2,5-diazaspiro[3.4]octan-6-one], with 16.1 nM; and `O=C1CCC2(CN(C(=O)N3CC4(CC(Cn5cnc(C6(C(F)(F)F)CC6)n5)C4)C3)C2)N1` [Example 330, 2-[6-[[3-[1-(trifluoromethyl)cyclopro-pyl]-1,2,4-triazol-1-yl]methyl]-2-azaspiro[3.3]heptane-2-carbonyl]-2,5-diazaspiro[3.4]octan-6-one], with 24.6 nM; and `CC(C)(C)c1ncc(CN2CC3(C2)CN(C(=O)N2CC4(CCC(=O)N4)C2)C3)s1` [Example 331, 2-[6-[(2-tert-butylthiazol-5-yl)methyl]-2,6-diazaspiro[3.3]heptane-2-carbonyl]-2,5-diazaspiro[3.4]octan-6-one], with 45.2 nM.
On to `O=C1CCC2(CN(C(=O)N3CC4(CCN(Cc5cc(C(F)(F)F)sn5)CC4)C3)C2)N1` [Example 332, 2-[7-[[5-(trifluoromethyl)isothia-zol-3-yl]methyl]-2,7-diazaspiro[3.5]nonane-2-carbonyl]-2,5-diazaspiro[3.4]octan-6-one], for which the midpoint of inhibition, the IC50, lay at 52.7 nM.
To `O=C1CCC2(CN(C(=O)N3CC4(CC(Cc5n[nH]c(C(F)(F)F)n5)C4)C3)C2)N1` [Example 333, 2-[6-[[5-(trifluoromethyl)-1H-1,2,4-triazol-3-yl]methyl]-2-azaspiro[3.3]heptane-2-carbonyl]-2,5-diazaspiro[3.4]octan-6-one] belongs 88.1 nM; to `O=C1CCC2(CN(C(=O)N3CC4(CN(Cc5snnc5C5CCC5)C4)C3)C2)N1` [Example 334, 2-[6-[(4-cyclobutylthiadiazol-5-yl)methyl]-2,6-diazaspiro[3.3]heptane-2-carbonyl]-2,5-diazaspiro[3.4]octan-6-one], 88.2 nM.
For `N=S(=O)(c1ccc(OC2CC3(C2)CN(C(=O)N2CC4(CCC(=O)N4)C2)C3)cc1)C(F)(F)F` (stereo not shown) [Example 335], the IC50 came to 101 nM.
To `CP(C)(=O)c1ccc(CC2CC3(C2)CN(C(=O)N2CC4(CCC(=O)N4)C2)C3)c(F)c1` [Example 336, 2-[6-(4-dimethylphosphoryl-2-fluoro-benzyl)-2-azaspiro[3.3]heptane-2-carbonyl]-2,5-diazaspiro[3.4]octan-6-one] belongs 146 nM.
Then `Cn1nc(C(F)(F)F)cc1CN1CCC2(CC1)CN(C(=O)N1CC3(CCC(=O)N3)C1)C2` [Example 337, 2-[7-[[2-methyl-5-(trifluoromethyl)pyrazol-3-yl]methyl]-2,7-diazaspiro[3.5]nonane-2-carbonyl]-2,5-diazaspiro[3.4]octan-6-one], with 160 nM; and `O=C1CCC2(CN(C(=O)N3CC4(CCN(Cc5cc(C(F)(F)F)on5)CC4)C3)C2)N1` [Example 338, 2-[7-[[5-(trifluoromethyl)isoxazol-3-yl]methyl]-2,7-diazaspiro[3.5]nonane-2-carbonyl]-2,5-diazaspiro[3.4]octan-6-one], with 178 nM.
Then `CP(C)(=O)c1cc(F)cc(CC2CC3(C2)CN(C(=O)N2CC4(CCC(=O)N4)C2)C3)c1` [Example 339, 2-[6-(3-dimethylphosphoryl-5-fluoro-benzyl)-2-azaspiro[3.3]heptane-2-carbonyl]-2,5-diazaspiro[3.4]octan-6-one], with 215 nM.
`O=C1CCC2(CN(C(=O)N3CC4(CN(Cc5nc(C6CC6)ns5)C4)C3)C2)N1` [Example 340, 2-[6-[(3-cyclopropyl-1,2,4-thiadiazol-5-yl)methyl]-2,6-diazaspiro[3.4]heptane-2-carbonyl]-2,5-diazaspiro[3.4]octan-6-one]: the midpoint of inhibition, the IC50, lay at 428 nM.
To `Cc1sc(CN2CC3(C2)CN(C(=O)N2CC4(CCC(=O)N4)C2)C3)nc1C(F)(F)F` [Example 341, 2-[6-[[5-methyl-4-(trifluoromethyl)thiazol-2-yl]methyl]-2,6-diazaspiro[3.3]heptane-2-carbonyl]-2,5-diazaspiro[3.4]octan-6-one] belongs 730 nM.
To `O=C1CCC2(CN(C(=O)N3CC4(CN(Cc5nnc(C(F)(F)F)s5)C4)C3)C2)N1` [Example 342, 2-[6-[[5-(trifluoromethyl)-1,3,4-thiadiazol-2-yl]methyl]-2,6-diazaspiro[3.3]heptane-2-carbonyl]-2,5-diazaspiro[3.4]octan-6-one] belongs 1600 nM; to `Cc1nc(C(F)(F)F)c(CN2CC3(C2)CN(C(=O)N2CC4(CCC(=O)N4)C2)C3)s1` [Example 343, 2-[6-[[2-methyl-4-(trifluoromethyl)thiazol-5-yl]methyl]-2,6-diazaspiro[3.4]heptane-2-carbonyl]-2,5-diazaspiro[3.4]octan-6-one], 1800 nM; to `Cn1cc(OC2CC3(C2)CN(C(=O)N2CC4(CCC(=O)N4)C2)C3)cn1` [Example 344, 2-[6-(1-methylpyrazol-4-yl)oxy-2-azaspiro[3.3]heptane-2-carbonyl]-2,5-diazaspiro[3.4]octan-6-one], 2450 nM.
Then `O=C1CCC2(CN(C(=O)N3CC4(CN(Cc5snnc5C5CC5)C4)C3)C2)N1` [Example 345, 2-[6-[(4-cyclopropylthiadiazol-5-yl)methyl]-2,6-diazaspiro[3.3]heptane-2-carbonyl]-2,5-diazaspiro[3.4]octan-6-one], with 3330 nM; and `Cc1cc(C(F)F)n(CC2CC3(C2)CN(C(=O)N2CC4(CCC(=O)N4)C2)C3)n1` [Example 346, 2-[6-[[5-(difluoromethyl)-3-methyl-pyrazol-1-yl]methyl]-2-azaspiro[3.3]heptane-2-carbonyl]-2,5-diazaspiro[3.4]octan-6-one], with 29.1 nM.
On to `Cc1cc(C(F)F)nn1CC1CC2(C1)CN(C(=O)N1CC3(CCC(=O)N3)C1)C2` [Example 347, 2-[6-[[3-(difluoromethyl)-5-methyl-pyrazol-1-yl]methyl]-2-azaspiro[3.3]heptane-2-carbonyl]-2,5-diazaspiro[3.4]octan-6-one], for which the IC50 worked out at 8.19 nM.
`O=C1CCC2(CN(C(=O)N3CC4(CCN(Cc5ncc(C(F)F)s5)CC4)C3)C2)N1` [Example 348, 2-[7-[[5-(difluoromethyl)thiazol-2-yl]methyl]-2,7-diazaspiro[3.5]nonane-2-carbonyl]-2,5-diazaspiro[3.4]octan-6-one] came in with an IC50 of 90.9 nM.
With `O=C1CCC2(CN(C(=O)N3CC4(CC(Cc5nsc(C(F)(F)F)n5)C4)C3)C2)N1` [Example 349, 2-[6-[[5-(trifluoromethyl)-1,2,4-thiadiazol-3-yl]methyl]-2-azaspiro[3.3]heptane-2-carbonyl]-2,5-diazaspiro[3.4]octan-6-one], half-maximal inhibition (IC50) required 23 nM.
Then `O=C1CCC2(CN(C(=O)N3CC4(CCN(Cc5cc(C(F)(F)F)[nH]n5)CC4)C3)C2)N1` [Example 350, 2-[7-[[5-(trifluoromethyl)-1H-pyrazol-3-yl]methyl]-2,7-diazaspiro[3.5]nonane-2-carbonyl]-2,5-diazaspiro[3.4]octan-6-one], with 165 nM; and `O=C1NC2(CO1)CN(C(=O)N1CC3(CC(Cc4nc(C(F)(F)F)cs4)C3)C1)C2` [Example 351, 2-[6-[[4-(trifluoromethyl)thiazol-2-yl]methyl]-2-azaspiro[3.3]heptane-2-carbonyl]-7-oxa-2,5-diazaspiro[3.4]octan-6-one], with 0.37 nM.
The molecule `Cn1ncc(CC2CC3(C2)CN(C(=O)N2CC4(COC(=O)N4)C2)C3)c1C(F)(F)F` [Example 352, 2-[6-[[1-methyl-5-(trifluoromethyl)pyrazol-4-yl]methyl]-2-azaspiro[3.3]heptane-2-carbonyl]-7-oxa-2,5-diazaspiro[3.4]octan-6-one] yielded an IC50 of 0.15 nM.
To `N#Cc1ccc(CC2CC3(C2)CN(C(=O)N2CC4(COC(=O)N4)C2)C3)cc1C(F)(F)F` [Example 353] belongs 0.1 nM; to `O=C1NC2(CO1)CN(C(=O)N1CC3(CC(Cc4ccc(C(F)(F)F)cn4)C3)C1)C2` [Example 354, 2-[6-[[5-(trifluoromethyl)-2-pyridyl]methyl]-2-azaspiro[3.3]heptane-2-carbonyl]-7-oxa-2,5-diazaspiro[3.4]octan-6-one], 0.28 nM.
Take `O=C1NC2(CO1)CN(C(=O)N1CC3(CC(Cc4ccc(OC(F)(F)F)nc4)C3)C1)C2` [Example 355, 2-[6-[[6-(trifluoromethoxy)-3-pyridyl]methyl]-2-azaspiro[3.3]heptane-2-carbonyl]-7-oxa-2,5-diazaspiro[3.4]octan-6-one]: the IC50 is 0.19 nM.
To `N=[S@](=O)(c1cccc(CC2CC3(C2)CN(C(=O)N2CC4(COC(=O)N4)C2)C3)c1)C(F)(F)F` [Example 356, 2-[6-[3-(trifluoromethylsulfoni-midoyl)benzyl]-2-azaspiro[3.3]heptane-2-carbonyl]-7-oxa-2,5-diazaspiro[3.4]octan-6-one] belongs 0.2 nM; to `N=[S@@](=O)(c1cccc(CC2CC3(C2)CN(C(=O)N2CC4(COC(=O)N4)C2)C3)c1)C(F)(F)F` [Example 357, 2-[6-[3-(trifluoromethylsulfoni-midoyl)benzyl]-2-azaspiro[3.3]heptane-2-carbonyl]-7-oxa-2,5-diazaspiro[3.4]octan-6-one], 0.15 nM; to `N=[S@@](=O)(c1ccc(CC2CC3(C2)CN(C(=O)N2CC4(COC(=O)N4)C2)C3)cc1)C(F)(F)F` [Example 358, 2-[6-[4-(trifluoromethylsulfoni-midoyl)benzyl]-2-azaspiro[3.3]heptane-2-carbonyl]-7-oxa-2,5-diazaspiro[3.4]octan-6-one], 0.26 nM.

One may read the IC50 as the concentration at which inhibition is half-maximal.
